Experimental findings from patent publication US20240294489A1 (Captor Therapeutics S.A., priority 2020, published 2024) are described below.

Format in all cases: cell-based
One experiment deals with NOMO-1. The experiment in a line: Cell viability, additional cell lines (CellTiter-Glo), NOMO-1. As to conditions: Homo sapiens, NOMO-1, 72 h; read-out: Absolute IC50. On the procedure:
(§1) Tumor cells are grown at 37° C. in a humidified atmosphere with 5% CO2 in RPMI 1640 medium, supplemented with 10% (v/v) fetal calf serum and 50 μg/ml gentamicin for up to 20 passages, and are passaged once or twice weekly.
(§2) Cells are harvested from exponential phase cultures, counted and plated in 96 well flat-bottom microtiter plates at a cell density depending on the cell line's growth rate (4,000-20,000 cells/well depending on the cell line's growth rate, up to 60,000 for hematological cancer cell lines) in RPMI 1640 medium supplemented with 10% (v/v) fetal calf serum and 50 μg/ml gentamicin (140 μl/well). Cultures are incubated at 37° C. and 5% CO2 in a humidified atmosphere. After 24 h, 10 μl of test compounds or control medium are added and left on the cells for another 72 h. Compounds are serially diluted in DMSO, transferred in cell culture medium, and added to the assay plates by using a Tecan Freedom EVO 200 robotic platform. The DMSO concentration is kept constant at 0.3% v/v across the assay plate. Viability of cells is quantified by the CellTiter-Glo® cell viability assay (Promega G8462). After incubation of cells, 100 μl of CellTiter-Glo® One Solution Assay reagent are added to each well. Plates are shaken for 2 minutes to induce cell lysis and incubated for 20 minutes prior to reading luminescence (LU) by using the EnVision® Xcite multilabel plate reader (Perkin Elmer). […]

Another experiment concerns H929 cells. Nature of the experiment: Cell viability CTG assay, H929. On the set-up: key to Geomean absolute IC50 by molecule, 72 H: Inactive represents IC50 > 50 μM; C represents 50 μM ≥ IC50 > 5 μM. Particulars: H929, 72 h, 0.001-50 μM. The method, boiled down:
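Cells exposed to compound at 0.25% v/v DMSO for 72 h (37° C., 5% CO2). ATP quantified by CellTiter-Glo luminescence, normalized to DMSO control. Absolute IC50 (T/C=50%) by non-linear regression on duplicate means; geometric mean used for averages.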

The next experiment concerns KG-1. The experiment in a line: Cell viability, additional cell lines (CellTiter-Glo), KG-1. Particulars: Homo sapiens, KG-1, 72 h. On the procedure:
as §1, §2

In the next experiment the test system is MOLT-3. Nature of the experiment: Cell viability, additional cell lines (CellTiter-Glo), MOLT-3. As to conditions: Homo sapiens, MOLT-3, 72 h. On the procedure:
as §1, §2

In another experiment the test system is OPM-2. Nature of the experiment: Cell viability, additional cell lines (CellTiter-Glo), OPM-2. Particulars: Homo sapiens, OPM-2, 72 h; read-out: Absolute IC50. On the procedure: as §1, §2
A further experiment relates to LP-1. The experiment in a line: Cell viability, additional cell lines (CellTiter-Glo), LP-1. As to conditions: Homo sapiens, LP-1, 72 h; read-out: Absolute IC50. On the procedure: as §1, §2
The next experiment deals with HL-60. Nature of the experiment: Cell viability, additional cell lines (CellTiter-Glo), HL-60. Particulars: Homo sapiens, HL-60, 72 h; read-out: Absolute IC50. On the procedure:
as §1, §2

A further experiment has as its system U-266. The experiment in a line: Cell viability, additional cell lines (CellTiter-Glo), U-266. Particulars: Homo sapiens, U-266, 72 h; read-out: Absolute IC50. On the procedure: as §1, §2
A further experiment relates to MOLM-1. Nature of the experiment: Cell viability, additional cell lines (CellTiter-Glo), MOLM-1. As to conditions: MOLM-1, 72 h. On the procedure: as §1, §2
A further experiment has as its system MOLM-6. Nature of the experiment: Cell viability, additional cell lines (CellTiter-Glo), MOLM-6. Particulars: MOLM-6, 72 h. On the procedure: as §1, §2
A further experiment concerns the target T1, GSPT1 (Homo sapiens, UniProt P15170+Q96SW2).
T1 construct: GSPT1 degradation in the Hep3B cell line was investigated; endogenous in cells; host or cells: Hep3B
Nature of the experiment: GSPT1 degradation assay, Hep3B cell line. As to conditions: HEP3B cells, 24 h, read-out: % of GSPT1 protein reduction. A digest of the protocol: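 Hep3B cells treated 24 h at 37 °C with compounds across a concentration range (0.25% DMSO final). GSPT1 level measured by western blot densitometry, normalized to loading control and expressed as % of DMSO control.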

Another experiment deals with OCI-AML2. The experiment in a line: Cell viability, additional cell lines (CellTiter-Glo), OCI-AML2. Particulars: Homo sapiens, OCI-AML2, 72 h; read-out: Absolute IC50. The method, then:
as §1, §2

The test system of the next experiment is SU-DHL-1. Nature of the experiment: Cell viability, additional cell lines (CellTiter-Glo), SU-DHL-1. Particulars: Homo sapiens, SU-DHL-1, 72 h; read-out: Absolute IC50. The method, then:
as §1, §2

The mark [1] stands for this setting: 9.5 μM, read-out: Test/Control viability at 9.5 μM.

T1 sequence (P15170 whole entry): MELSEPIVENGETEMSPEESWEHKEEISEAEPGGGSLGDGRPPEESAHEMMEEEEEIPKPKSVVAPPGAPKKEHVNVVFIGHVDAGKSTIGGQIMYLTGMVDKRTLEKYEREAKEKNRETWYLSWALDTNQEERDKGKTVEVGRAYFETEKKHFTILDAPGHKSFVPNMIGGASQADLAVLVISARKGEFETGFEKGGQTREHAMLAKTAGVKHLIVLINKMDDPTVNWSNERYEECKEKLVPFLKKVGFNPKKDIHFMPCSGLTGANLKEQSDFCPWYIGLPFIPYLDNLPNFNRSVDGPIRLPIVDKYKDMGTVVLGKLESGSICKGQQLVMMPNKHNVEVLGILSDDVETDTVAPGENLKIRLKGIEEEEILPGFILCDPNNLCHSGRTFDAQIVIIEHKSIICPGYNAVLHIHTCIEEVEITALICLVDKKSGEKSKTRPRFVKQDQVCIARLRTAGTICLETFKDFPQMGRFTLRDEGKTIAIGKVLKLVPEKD
T1 sequence (Q96SW2 whole entry): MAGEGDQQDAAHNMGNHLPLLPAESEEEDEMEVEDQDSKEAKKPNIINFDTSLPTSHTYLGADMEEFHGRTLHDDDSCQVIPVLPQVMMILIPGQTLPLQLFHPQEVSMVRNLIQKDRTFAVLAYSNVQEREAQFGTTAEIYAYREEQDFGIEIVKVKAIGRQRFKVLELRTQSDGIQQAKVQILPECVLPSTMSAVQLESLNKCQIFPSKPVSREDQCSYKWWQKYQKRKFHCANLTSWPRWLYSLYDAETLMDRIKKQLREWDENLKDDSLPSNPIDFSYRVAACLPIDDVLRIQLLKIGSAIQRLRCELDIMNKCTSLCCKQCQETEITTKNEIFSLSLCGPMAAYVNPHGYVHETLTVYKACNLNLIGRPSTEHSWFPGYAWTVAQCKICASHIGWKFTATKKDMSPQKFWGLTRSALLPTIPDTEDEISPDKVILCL
T1 sequence (Q16531 whole entry partner): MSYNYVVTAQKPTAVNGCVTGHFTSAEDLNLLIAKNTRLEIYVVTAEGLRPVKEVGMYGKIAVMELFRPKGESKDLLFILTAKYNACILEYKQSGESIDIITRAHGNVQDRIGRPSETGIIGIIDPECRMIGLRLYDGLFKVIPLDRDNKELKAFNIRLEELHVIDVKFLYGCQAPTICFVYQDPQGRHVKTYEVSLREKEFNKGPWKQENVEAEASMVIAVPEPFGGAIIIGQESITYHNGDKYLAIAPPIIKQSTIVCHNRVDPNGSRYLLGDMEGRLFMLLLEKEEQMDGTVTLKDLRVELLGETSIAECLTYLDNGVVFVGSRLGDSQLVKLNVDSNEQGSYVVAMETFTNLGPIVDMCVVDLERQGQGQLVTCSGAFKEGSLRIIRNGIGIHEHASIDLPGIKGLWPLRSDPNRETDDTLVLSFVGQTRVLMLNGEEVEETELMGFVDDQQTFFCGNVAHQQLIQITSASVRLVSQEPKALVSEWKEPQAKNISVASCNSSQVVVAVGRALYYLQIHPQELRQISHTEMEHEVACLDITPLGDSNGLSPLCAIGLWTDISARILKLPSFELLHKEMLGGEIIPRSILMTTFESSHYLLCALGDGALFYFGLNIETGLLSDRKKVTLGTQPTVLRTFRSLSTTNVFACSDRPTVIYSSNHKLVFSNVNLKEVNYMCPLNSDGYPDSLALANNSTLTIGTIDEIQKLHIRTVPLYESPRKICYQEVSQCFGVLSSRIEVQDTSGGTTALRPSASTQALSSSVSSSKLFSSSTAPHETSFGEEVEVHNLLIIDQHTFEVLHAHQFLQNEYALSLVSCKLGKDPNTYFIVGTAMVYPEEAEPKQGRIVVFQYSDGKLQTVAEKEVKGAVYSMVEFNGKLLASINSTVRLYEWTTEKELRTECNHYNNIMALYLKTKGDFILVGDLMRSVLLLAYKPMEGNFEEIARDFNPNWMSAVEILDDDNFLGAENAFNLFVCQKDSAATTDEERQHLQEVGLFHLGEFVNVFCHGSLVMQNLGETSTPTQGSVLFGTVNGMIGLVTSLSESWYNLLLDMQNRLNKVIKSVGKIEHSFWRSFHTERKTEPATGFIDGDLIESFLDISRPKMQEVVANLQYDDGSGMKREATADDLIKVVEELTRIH

For the molecule `NCc1ccc2c(c1)CN(C1CCC(=O)NC1=O)C2=O` (stereo not drawn) [Compound 1, 3-(5-(aminomethyl)-1-oxoisoindolin-2-yl)piperidine-2,6-dione], the IC50 was above 30 µM with NOMO-1; at most 0.1 µM in the experiment on KG-1 (read-out: Absolute IC50); at least 30 µM in the experiment on MOLT-3 (read-out: Absolute IC50); above 30 µM in the experiment with OPM-2; above 30 µM in the experiment with LP-1; above 30 µM in the experiment with HL-60. The IC50 in the experiment on U-266 is above 30 µM; with MOLM-1 (read-out: Absolute IC50), at most 0.1 µM; with MOLM-6 (read-out: Absolute IC50), 0.1 to 1 µM; with OCI-AML2, above 30 µM; in the experiment with SU-DHL-1, above 30 µM. Besides, the “Geomean absolute IC50 by molecule, 72 H” value with H929 cells is reported as “Inactive”. Also, the viability at 9.5 µM with KG-1 (setting [1]) was at most 30%; with MOLT-3 (setting [1]) it was at most 60%; with MOLM-1 (setting [1]) it was at most 30%; in the experiment with MOLM-6 (setting [1]) it was at most 60%. The inhibition at 1 µM on GSPT1 (1 uM) lay within 80 to 100%. For the same molecule, the inhibition at 10 µM on GSPT1 (10 uM) is 80 to 100%.
